{"source": "patent US20070099889A1", "about": "“Use of pseudan and pseudan inclusion bodies” (priority 2005, published 2007)", "origin": "cited, not measured here", "details": "isolated from filtrates of 4 to 6 week old culture of P. aeruginosa", "data": [{"smiles": "CCCCCCCCCc1cc(O)c2ccccc2n1", "note": "[4-hydroxy-2-nonylquinoline]", "values": [{"measurement": "antibiotic activity", "result": "exhibit antibiotic activity"}]}]}
